Test results: ChEMBL document CHEMBL1201862, “PubChem BioAssay data set” (2004)
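Values below derive from 48-hour exposures of cells grown in 96-well plates, with endpoints linearly interpolated between the two concentrations bracketing the appropriate inhibition level. At the GI50, growth is halved.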 Activity calls are given as the source filed them. Cut-off read from the data, not from the text of the source: active = GI50 up to about 1.1 µM and inactive = higher.

Legend:
Experiment in all cases: inhibition of tumour cell growth, NCI panel, 48 h
786-0 = tested on: 786-0
CCRF-CEM = tested on: CCRF-CEM
HL-60 = tested on: HL-60
Hs-578T = tested on: Hs-578T
IGROV-1 = tested on: IGROV-1
MOLT-4 = tested on: MOLT-4
NCI-H226 = tested on: NCI-H226
NCI-H522 = tested on: NCI-H522
NCI/ADR-RES = tested on: NCI/ADR-RES
OVCAR-5 = tested on: OVCAR-5
PC-3 = tested on: PC-3
RPMI-8226 = tested on: RPMI-8226
RXF 393 = tested on: RXF 393
SK-MEL-2 = tested on: SK-MEL-2
SK-OV-3 = tested on: SK-OV-3
SN12C = tested on: SN12C
SNB-19 = tested on: SNB-19
SNB-75 = tested on: SNB-75
UACC-257 = tested on: UACC-257
UO-31 = tested on: UO-31

For `Cc1cc(-c2nc3cc(F)ccc3s2)ccc1NC(=O)C(C)N` (stereo not drawn), the GI50 (786-0) was 3.76 µM (inactive), the GI50 (CCRF-CEM) was 0.64 µM (active) and the GI50 (HL-60) was 0.249 µM (active). The GI50 (Hs-578T) was 4.95 µM (inactive), the GI50 (IGROV-1) was 0.0408 µM (active) and the GI50 (MOLT-4) was 3.33 µM (inactive). For the same compound, the GI50 (NCI-H226) was > 25 µM (inactive), the GI50 (NCI-H522) was 4.09 µM (inactive) and the GI50 (NCI/ADR-RES) was 4.79 µM (inactive). For the same compound, the GI50 (OVCAR-5) was 1 µM (active), the GI50 (PC-3) was 4.13 µM (inactive) and the GI50 (RPMI-8226) was 5.89 µM (inactive). For the same compound, the GI50 (RXF 393) was 3.75 µM (inactive), the GI50 (SK-MEL-2) was 4.11 µM (inactive) and the GI50 (SK-OV-3) was 4.1 µM (inactive). The GI50 (SN12C) was 4.32 µM (inactive), the GI50 (SNB-19) was 4.72 µM (inactive) and the GI50 (SNB-75) was 5.05 µM (inactive). For the same compound, the GI50 (UACC-257) was 4.31 µM (inactive) and the GI50 (UO-31) was 3.7 µM (inactive).
With `Clc1cc(Cl)cc(/N=C/C=C/Nc2cc(Cl)cc(Cl)c2)c1` the GI50 (786-0) was 17.3 µM (inactive), the GI50 (CCRF-CEM) was 20.8 µM (inactive) and the GI50 (HL-60) was 19.1 µM (inactive). The GI50 (Hs-578T) was 19.1 µM (inactive), the GI50 (IGROV-1) was 22.6 µM (inactive) and the GI50 (MOLT-4) was 19.8 µM (inactive). The GI50 (NCI-H226) was 14.4 µM (inactive), the GI50 (NCI-H522) was 14.7 µM (inactive) and the GI50 (NCI/ADR-RES) was 16.4 µM (inactive). The GI50 (OVCAR-5) was 21.6 µM (inactive), the GI50 (PC-3) was 16.4 µM (inactive) and the GI50 (RPMI-8226) was 24.5 µM (inactive). For the same compound, the GI50 (RXF 393) was 17.3 µM (inactive), the GI50 (SK-MEL-2) was 19.9 µM (inactive) and the GI50 (SK-OV-3) was 35.5 µM (inactive). The GI50 (SN12C) was 17.4 µM (inactive), the GI50 (SNB-19) was 21.4 µM (inactive) and the GI50 (SNB-75) was 13.1 µM (inactive). For the same compound, the GI50 (UACC-257) was 33.7 µM (inactive) and the GI50 (UO-31) was 23.4 µM (inactive).
`COc1ccc(NC(=O)CC(=O)n2nc(-c3ccccc3)c(/N=N/c3ccc(C)cc3)c2-c2ccccc2)cc1` was tested, and the GI50 (786-0) was 19.2 µM (inactive), the GI50 (CCRF-CEM) was > 84.7 µM (inactive) and the GI50 (HL-60) was > 100 µM (inactive). For the same compound, the GI50 (Hs-578T) was 16.6 µM (inactive), the GI50 (IGROV-1) was 16.9 µM (inactive) and the GI50 (MOLT-4) was > 95.9 µM (inactive). For the same compound, the GI50 (NCI-H226) was 21.7 µM (inactive), the GI50 (NCI-H522) was 29 µM (inactive) and the GI50 (NCI/ADR-RES) was 25.7 µM (inactive). The GI50 (OVCAR-5) was > 80 µM (inactive), the GI50 (PC-3) was > 41.4 µM (inactive) and the GI50 (RPMI-8226) was 55.7 µM (inactive). The GI50 (RXF 393) was 19.1 µM (inactive), the GI50 (SK-MEL-2) was 32.7 µM (inactive) and the GI50 (SK-OV-3) was 16.4 µM (inactive). The GI50 (SN12C) was 38 µM (inactive), the GI50 (SNB-19) was 21.5 µM (inactive) and the GI50 (SNB-75) was 16.4 µM (inactive). For the same compound, the GI50 (UACC-257) was 57.8 µM (inactive) and the GI50 (UO-31) was 29.3 µM (inactive).
In the case of `O=C(O)[C@@H]1C[C@@H](O)CN1C(=O)OCc1ccccc1`, the GI50 (786-0) is reported as > 100 µM (inactive), the GI50 (CCRF-CEM) is reported as > 100 µM (inactive) and the GI50 (HL-60) is reported as > 100 µM (inactive). The GI50 (Hs-578T) was > 100 µM (inactive), the GI50 (IGROV-1) was > 100 µM (inactive) and the GI50 (MOLT-4) was > 100 µM (inactive). The GI50 (NCI-H226) was > 100 µM (inactive), the GI50 (NCI-H522) was > 100 µM (inactive) and the GI50 (NCI/ADR-RES) was > 100 µM (inactive). The GI50 (OVCAR-5) was > 100 µM (inactive), the GI50 (PC-3) was > 100 µM (inactive) and the GI50 (RPMI-8226) was > 100 µM (inactive). The GI50 (RXF 393) was > 100 µM (inactive), the GI50 (SK-MEL-2) was > 100 µM (inactive) and the GI50 (SK-OV-3) was > 100 µM (inactive). The GI50 (SN12C) was > 100 µM (inactive), the GI50 (SNB-19) was > 100 µM (inactive) and the GI50 (SNB-75) was 1.16 µM (inactive). The GI50 (UACC-257) was > 100 µM (inactive) and the GI50 (UO-31) was > 100 µM (inactive).
For `C(#C[C@@]12CCC[C@@H]1NCO2)c1ccc2c(c1)OCO2`, the GI50 (786-0) was 43.7 µM (inactive), the GI50 (CCRF-CEM) was 42.6 µM (inactive) and the GI50 (HL-60) was 24 µM (inactive). For the same compound, the GI50 (Hs-578T) was 37.8 µM (inactive), the GI50 (IGROV-1) was 45.9 µM (inactive) and the GI50 (MOLT-4) was 22.2 µM (inactive). The GI50 (NCI-H226) was > 100 µM (inactive), the GI50 (NCI-H522) was 37.3 µM (inactive) and the GI50 (NCI/ADR-RES) was 37.5 µM (inactive). The GI50 (OVCAR-5) was > 100 µM (inactive), the GI50 (PC-3) was 55.8 µM (inactive) and the GI50 (RPMI-8226) was 36.6 µM (inactive). For the same compound, the GI50 (RXF 393) was 49.3 µM (inactive), the GI50 (SK-MEL-2) was > 100 µM (inactive) and the GI50 (SK-OV-3) was > 100 µM (inactive). The GI50 (SNB-19) was > 100 µM (inactive), the GI50 (SNB-75) was 45.1 µM (inactive) and the GI50 (UACC-257) was 44.2 µM (inactive). For the same compound, the GI50 (UO-31) was 30.3 µM (inactive).
In the case of `O=C(CCCCCCC(=O)Nc1cccnc1)NO` [PYROXAMIDE], the GI50 (786-0) is reported as 7.21 µM (inactive), the GI50 (CCRF-CEM) is reported as 1.31 µM (inactive) and the GI50 (HL-60) is reported as 10.2 µM (inactive). For the same compound, the GI50 (Hs-578T) was 5.15 µM (inactive), the GI50 (IGROV-1) was 14.7 µM (inactive) and the GI50 (MOLT-4) was 2.2 µM (inactive). The GI50 (NCI-H226) was 36.3 µM (inactive), the GI50 (NCI-H522) was 1.26 µM (inactive) and the GI50 (NCI/ADR-RES) was 1.81 µM (inactive). For the same compound, the GI50 (OVCAR-5) was 4.14 µM (inactive), the GI50 (PC-3) was 7.26 µM (inactive) and the GI50 (RPMI-8226) was 3.14 µM (inactive). The GI50 (RXF 393) was 5.89 µM (inactive), the GI50 (SK-MEL-2) was 2.72 µM (inactive) and the GI50 (SK-OV-3) was 5.19 µM (inactive). The GI50 (SNB-19) was 16.1 µM (inactive), the GI50 (SNB-75) was 18.1 µM (inactive) and the GI50 (UACC-257) was 4.75 µM (inactive). The GI50 (UO-31) was 6.5 µM (inactive).
